Values joined by “and” are separate entries in the source; they are usually repeats but may differ in a detail not shown here. Equal values may be shown once. Values belong to the molecule of their own block, whether it stands above or below them. Non-standard residues stand in square brackets, D forms with d. Residues, ends and D or L forms follow the SMILES beside them. ξ: configuration not given here. ξY = NC(Cc1ccc(O)cc1)C(=O)O; ξS = NC(CO)C(=O)O
Assays:
[1] = Hygroscopicity and handling stability of salts and zwitterions; format: physicochemical
Description: Salts of compound O-Acetyl-(L)-Serine-O—(O-Acetyl)-L-Serine with various acids, including HCl, MeSO3H and tartaric acid, were prepared. […] The salt with tartaric acid was unstable and produced the zwitterion son attempted recrystallization from water/acetonitrile. The zwitterions of all three compounds were the most convenient forms (non-hygroscopic) for preparation. If needed, salts are prepared in situ during the formulation process.
(§1) A sample of the compound of Ex 3 was tested in D2O with 1 drop of DCl added for a better solubility of the material. […] Stability of the compound of Ex 3 in an aqueous solution as a salt of tartaric acid is much greater. A 400-mg sample of the salt was attempted to recrystallize from 6 ml of boiling acetonitrile and 20 drops of water. The material crystallized as a zwitterion (not a tartrate) with minor traces of the decomposition. However, the recovery was 132 mg only.
(§2) c. The material of Ex 3 as a zwitterion was recrystallized from aqueous 40% EtOH while heating at 70 C for approximately 20 minutes. […] In a solution of 8% acetonitrile/92% aqueous 0.05 mol buffer of KH2PO4 (pH 5). […] Temperature of the analyses greatly affected the outcome of the analyses.

[2] = Stability followed by HPLC purity (time in solution, temperature of analysis); format: physicochemical; conditions: for HPLC purity, same sample analyzed at 10 C: temperature of analysis 10 C (Ex 3: pH 4.5); for HPLC purity, same sample analyzed at 40 C: temperature of analysis 40 C
Description: (§3) In addition, HPLC analysis of the products indicated faster degradation when determinations were made at higher temperatures (40 or 25° C. compared to 10 or 15° C.). The purity of the compounds of Ex 4 varied by as much as 20% when the analysis was performed at 25 and 10° C., respectively.
as §2
(§4) f. Instability of the compound of Ex 4 in an aqueous solution as a zwitterion was observed when a recovery of an additional amount of the material from a large freeze-drying flask was attempted. Simple dissolution of a residual material on the walls with DI water followed by freeze-drying has decrease estimated by NMR purity from 95-96% to 87-88%. • g. […] The same sample analyzed at 25 C and 10 C had difference in purity 13-15%, e.g., either 78-80% or 93%.
(§5) Instability of the compound of Ex 5 in an aqueous solution as a zwitterion was observed while doing a purification of an additional amount of the material on C8 silica gel with water/acetonitrile as eluent. • j. The material of the compound of Ex 5 was decomposing faster during HPLC analysis when temperature of the thermostat was higher. The same sample analyzed at 40 C and 15 C had purity 97% or 99%, correspondingly. • k.

[3] = Stability in solution or solid state followed by NMR; format: physicochemical
Description: as §3, §1, §4, §5

platelet aggregation [4] = test: Whole blood clotting time by capillary tube method in human volunteers; format: in vivo; conditions: for Max % Increase in clotting time: versus time zero
Description: A Test Method was developed to determine clotting time to evaluate the anti, platelet aggregation effect of O-acetyl-L-Tyrosine (OAT) by employing capillary tube method in two human volunteers.
1. Dose Strength: Volunteer 1 (90 Kg) 1000 mg, Volunteer 2 (60 Kg) 350 mg of OAT
3. Route of Administration: Single exposure by […]. 4. Blank Control Self, time zero clotting time
600 mg of O-Acetyl-L-Serine-O-Acetyl-L-Tyrouine was administered to a single human volunteer who weighs 136 lbs and is […]. The procedure was conducted using the protocol of Example 2, except the drug administered was O-Acetyl-L-Serine-O-Acetyl-L-Tyrosine. The results are depicted in FIG. 3.

platelet aggregation [5] = test: Clotting time by capillary tube method in Swiss Albino rats (anti platelet aggregation effect); format: in vivo; conditions: for Clotting time: OAS study, 2 hours post dosing, HCl salt; for Clotting time / Clotting time in minutes, After 4 hrs of administration / Clotting time in minutes, After 24 hrs of administration: single oral gavage; for Significance of clotting times at all dose levels and between the dose levels (FIG. 1): rats, 10-100 mg/kg, average of 5 rats, P<0.5 [sic]; for Clotting time in minutes, After 4 hrs of administration / Clotting time in minutes, After 24 hrs of administration: OAT study
Description: A Test Method was developed to determine clotting time to evaluate the anti platelet aggregation effect of O-acetyl-L-Serine HCl salt (OAS), and O-acetyl-L-Tyrosine (OAT) by employing a capillary tube method using Swiss Albino Rats as the test system.
Young 5-6 weeks old Swiss Albino rats weighing about 200 Gm were used in the following protocol. They were obtained from an established animal supplier.
1. Dose Strength: 10, 20, 50 and 100 mg/kg of OAS and OAT
3. Route of Administration: Single exposure by oral gavage. 4. No. of animals per group: 5
Experimental procedure: The rats were fasted for 18-20 hours before dosing. A Syringe attached to a 16 gauge blunt tipped canula was used for this purpose. Two hours after dosing, the animals were provided with feed. 24 hours (±10 minutes) after the administration of the drug, blood samples were collected (0.2 ml approx) in capillary tubes. Animals were anaesthetized by mild ether inhalation by keeping a cotton swab soaked in ether near the nostrils of the animal. Blood was collected from the orbital sinus onto the capillary tube. […] For the confirmation of clotting, clotting as checked 30 seconds after the last observed clotting. An increase in clotting time compared to vehicle is an index of inhibition of platelet aggregation.
[…] With OAS, only one clotting time measurement, at 2 hours post dosing, was performed.
In FIG. 1, the clotting time in minutes was plotted against Log of the dose in mg/kg, each point being an average of clotting time obtained in 5 rats. A value of zero was assigned to vehicle control (zero dose). […] (AceTyro=O-Acetyl-L-Tyrosine and AceSer=O-Acetyl-L-Serine HCl).

[6] = 8% acetonitrile/92% aqueous 0.05 mol buffer of KH2PO4 (pH 5)
[7] = single human volunteer, 136 lbs, 600 mg
[8] = Group-2, individual rats, likely 10 mg/kg
[9] = Group-3, individual rats, likely 20 mg/kg
[10] = Group-4, individual rats, likely 50 mg/kg
[11] = Group-5, individual rats, likely 100 mg/kg

Compound: CC(=O)OC[C@H](NC(=O)[C@@H](N)COC(C)=O)C(=O)O [Ex 3, O-acetyl-(L)-serine-O-acetyl-(L)-serine] (H-Ser(Ac)-Ser(Ac)-OH)
- Hygroscopicity of salts ([1]; salts with HCl, MeSO3H and tartaric acid): hygroscopic
- Stability of the salt with tartaric acid on attempted recrystallization ([1]; water/acetonitrile, produced the zwitterion): unstable

- HPLC purity after 5 days after dissolution [2, 6]: 95.7%
- HPLC purity in solution before storage [2, 6]: 97.3%
- HPLC purity, same sample analyzed at 10 C [2]: 99.4%
- HPLC purity, same sample analyzed at 40 C [2]: 97.3%
- Stability in solutions during isolation, purification and analyses (qualitative) [3]: Certain instability
- NMR purity of the fresh prepared sample ([3]; D2O with 1 drop of DCl): about 95%
- NMR sample after 4 days at room temperature ([3]; D2O with 1 drop of DCl, three sets of signals found): severe decomposition
- Stability in an aqueous solution as a salt of tartaric acid ([1]; compared with D2O/DCl sample): much greater
Compound: CC(=O)OCC(NC(=O)[C@@H](N)COC(C)=O)C(=O)O (stereo partly shown) [Ex 3, O-acetyl-(L)-serine-O-acetyl-(L)-serine] (H-Ser(Ac)-[ξS](Ac)-OH)
- By-product on recrystallization from aqueous 40% EtOH ([1]; zwitterion, heating at 70 C for approximately 20 minutes, mother liquor): Significant accumulation of the O, N-acetyl shift's by-product

- Variation of purity between HPLC analysis at 25 and 10° C. [2]: ≤ 20%
- Difference in HPLC purity between analysis at 25 C and 10 C ([2]; same sample): 13-15%
- HPLC purity, same sample analyzed at 10 C [2]: 93%
- HPLC purity, same sample analyzed at 25 C ([2]; temperature of analysis 25 C): 78-80%
- Stability in solutions during isolation, purification and analyses (qualitative) [3]: greatest instability in the whole series
- Purity estimated by NMR before re-dissolution ([3]; zwitterion): 95-96%
- Purity estimated by NMR after dissolution with DI water followed by freeze-drying ([3]; zwitterion, aqueous solution): 87-88%
Compound: CC(=O)OC[C@H](N)C(=O)N[C@H](C(=O)O)[C@@H](C)OC(C)=O [Ex 4, O-acetyl-(L)-serine-O-acetyl-(L)-threonine] (H-Ser(Ac)-Thr(Ac)-OH)

- HPLC purity, same sample analyzed at 15 C ([2]; temperature of analysis 15 C): 99%
- HPLC purity, same sample analyzed at 40 C [2]: 97%
- O, N-shift by-product formed after 26 hours ([3]; D2O solution (NMR sample)): about 3.4%
- O, N-shift impurity after 5 days ([3]; same NMR sample in D2O): 4.7%
Compound: CC(=O)OC[C@H](N)C(=O)NC(Cc1ccc(OC(C)=O)cc1)C(=O)O (stereo partly shown) [Ex 5, O-acetyl-(L)-serine-O-acetyl-(L)-tyrosine] (H-Ser(Ac)-[ξY](Ac)-OH)
- Anti platelet activity (blood clotting time, FIG. 3) (platelet aggregation [4]; [7]): significant anti platelet activity
- Period of significant anti platelet activity (platelet aggregation [4]; [7]): 200 h
- Stability in solutions during isolation, purification and analyses (qualitative) [3]: comparable stability of relative to Compound F
- Decomposition in a solid state after 5 days of storage at 25 C ([3]; batch B, freshly dissolved material, NMR): a trace of the signal at 3.7 ppm (CH2OH group) was observed

Compound: CC(=O)OC[C@H](N)C(=O)O.Cl [OAS, O-acetyl-L-Serine HCl salt]
- Clotting time (platelet aggregation [5]; [8]): 6 minutes (2×) and 8 minutes and 9 minutes (2×)
- Clotting time (platelet aggregation [5]; [9]): 9 minutes (3×) and 8 minutes (2×)
- Clotting time (platelet aggregation [5]; [10]): 19 min and 20 min and 16 min and 17 min and 15 min
- Clotting time (platelet aggregation [5]; [11]): 26 minutes (2×) and 22 minutes and 30 minutes and 29 minutes
- Significance of clotting times at all dose levels and between the dose levels (FIG. 1) (platelet aggregation [5]): statistically significant

Compound: CC(=O)Oc1ccc(C[C@H](N)C(=O)O)cc1 [OAT, O-acetyl-L-Tyrosine]
- Whole blood clotting time (platelet aggregation [4]; Vol 1 (90 Kg), 1000 mg once, Time 8): 6.5 min
- Whole blood clotting time (platelet aggregation [4]; Vol 1 (90 Kg), 1000 mg once, Time 12): 8.5 min
- Whole blood clotting time (platelet aggregation [4]; Vol 1 (90 Kg), 1000 mg once, Time 24): 8 min
- Whole blood clotting time (platelet aggregation [4]; Vol 1 (90 Kg), 1000 mg once, Time 48): 7.5 min
- Sustained Increase % in clotting time (platelet aggregation [4]; Vol 1, 1000 mg, at 48 hours after initial dose, listed as O-Acetyl Tyrosine): 25%
- Max % Increase in clotting time (platelet aggregation [4]; Vol 1, 1000 mg): 42%
- Whole blood clotting time (platelet aggregation [4]; Vol 2 (60 Kg), 350 mg once, Time 2): 5.5 min
- Whole blood clotting time (platelet aggregation [4]; Vol 2 (60 Kg), 350 mg once, Time 5): 6 min
- Whole blood clotting time (platelet aggregation [4]; Vol 2 (60 Kg), 350 mg once, Time 11): 6.75 min
- Whole blood clotting time (platelet aggregation [4]; Vol 2 (60 Kg), 350 mg once, Time 22.5): 6.5 min
- Sustained Increase % in clotting time (platelet aggregation [4]; Vol 2, 350 mg, last time point): 18%
- Max % Increase in clotting time (platelet aggregation [4]; Vol 2, 350 mg, listed as O-Acetyl Tyrosine): 23%
- Time for which increase in clotting time was sustained (platelet aggregation [4]; Volunteer 1, 1000 mg): at least 48 hours
- Dose dependence of increase in clotting time (platelet aggregation [4]; two human volunteers, 1000 mg and 350 mg): dose dependent increase in clotting time
- Side effects or toxic reactions reported by volunteers (platelet aggregation [4]; two human volunteers, single dose 1000 mg or 350 mg): Neither volunteer reported any unusual side effects or toxic reactions
- Clotting time in minutes, After 4 hrs of administration (platelet aggregation [5]; Group-2, individual rats, group dose not given (doses 10, 20, 50, 100 mg/kg)): 8 minutes (2×) and 9 minutes (2×) and 10 minutes
- Clotting time in minutes, After 24 hrs of administration (platelet aggregation [5]; [8]): 8 minutes (2×) and 9 minutes (2×) and 7 minutes
- Clotting time in minutes, After 4 hrs of administration (platelet aggregation [5]; [9]): 9 minutes (2×) and 10 minutes (2×) and 15 minutes
- Clotting time in minutes, After 24 hrs of administration (platelet aggregation [5]; [9]): 9 minutes and 10 minutes (2×) and 8 minutes and 11 minutes
- Clotting time in minutes, After 4 hrs of administration (platelet aggregation [5]; [10]): 18 minutes and 19 minutes (2×) and 17 minutes (2×)
- Clotting time in minutes, After 24 hrs of administration (platelet aggregation [5]; [10]): 14 minutes (3×) and 16 minutes (2×)
- Clotting time in minutes, After 4 hrs of administration (platelet aggregation [5]; [11]): 21 minutes (2×) and 26 minutes and 29 minutes and 25 minutes
- Clotting time in minutes, After 24 hrs of administration (platelet aggregation [5]; [11]): 19 min and 23 min and 22 min and 25 min and 24 min
- Significance of clotting times at all dose levels and between the dose levels (FIG. 1) (platelet aggregation [5]): statistically significant

Source: US20110312890A1, “ACETYLATED AMINO ACIDS AS ANTI-PLATELET AGENTS, NUTRITIONAL AND VITAMIN SUPPLEMENTS” (SIGNATURE R&D HOLDINGS, LLC, priority 2005, published 2011)
